Results from patent US20110245171A1, “REHYDRATION COMPOSITIONS COMPRISING EPIDERMAL GROWTH FACTOR (EGF)” (priority 2004, published 2011).

Columns and labels:
giardiasis = settings: compared to untreated animals, literature; cited from earlier work
K88 positive E. coli = test: Enteropathogenic E. coli infection in piglets, oral EGF; assay type: in vivo
Description: An enteropathogenic Escherichia coli isolate obtained from Veterinary Pathology Laboratories (VPL), Edmonton, Alberta was utilized in these experiments. This strain was originally isolated from a piglet with diarrhea and is positive for Stb, Lt, and K88 (F4). This strain is referred to as K88 positive E. coli. Enteropathogenic E. coli infections produce primarily a malabsorptive diarrhea, although there is a smaller secretory component.
Bacteria were grown in LB™ broth (Difco Laboratories, Detroit, Mich.) and frozen on Microbank™ porous beads (Pro-Labs Diagnostics, Richmond Hill, ON) at −70° C. For each inoculum preparation, one bead was thawed and incubated in 20 ml sterile LB™ broth for 5 h at 37° C., 200 rpm. Then, the 20 ml starter culture was placed in 980 ml LB™ broth and incubated at 37° C. for 15 hours, 200 rpm. LB™ broth was aliquoted in 18 sterile polystyrene 50 ml tubes (Falcon), centrifuged at 3000 rpm (floor Sorval) for 10 minutes, and all pellets pooled and resuspended in 50 ml 10% […]-sterile PBS.
Inoculum: Piglets received late log phase 1×10^10 (counted by spectrophotometry, 600 nm, A=1.9) live K88 positive E. coli. Bacterial inoculum was delivered in 10% NaHCO3/sterile PBS (5 ml), followed by lactate Ringer's solution (5 ml). The inoculum (10 ml) was delivered via a 40 cm orogastric intubation tube connected to a 20 cc syringe. Total bacterial counts in inoculum were calculated via serial dilutions plated onto LB™ agar and incubated overnight at 37° C., 5% CO2.
A pregnant sow was purchased from a local commercial supplier (Doug Hall, Airdrie, AB) approximately one week prior to due-date. The sow was housed at the University of Calgary farm in a farrowing pen. The sow was given free access to water and pig feed (Doug Hall, Airdrie, AB). Two-day old piglets were weight ranked and randomly assigned to each experimental group (see below), and treatment was initiated that day (Day-1). Inoculation with live K88 positive E. coli was carried out the following day (Day 0). […]

C. parvum = settings: literature; cited from earlier work
Salmonella typhimurium = settings: in vitro, literature; cited from earlier work
[1] = tested on: pathogenic strains of Escherichia coli; settings: in vitro, literature; cited from earlier work
[2] = tested on: piglets with spontaneous neonatal diarrhea; test: Spontaneous neonatal diarrhea in piglets, oral EGF; assay type: in vivo
Source text: A pregnant sow was purchased from a local commercial supplier (Doug Hall, Airdrie, AB) approximately one week prior to due-date. The sow was housed at the University of Calgary farm in a farrowing pen. The sow was given free access to water and pig feed (Doug Hall, Airdrie, AB). Two-day old piglets were weight ranked and randomly assigned to each experimental group (see below), and treatment was initiated that day (Day 0) and animals assessed 24 hr later. […] Piglets with their sow were housed separately in contained animal facilities for the duration of the experiment at the University of Calgary farm. Housing was at 20° C., with approximate 8:16 h photoperiods.
Piglets were assigned to one of the following experimental groups: 1) untreated animals gavaged orally with 5 mL sterile PBS daily starting on Day 0, and 2) EGF-treated, gavaged orally with rhEGF in 5 mL sterile PBS at a concentration of 100 μg/kg body weight daily starting on Day 0.
The study was terminated on Day 1. A total of 10 piglets were studied, 5 were given EGF, and 5 received vehicle (untreated).
Piglets were checked daily for weight gain, production of diarrhea, and overall clinical condition (alertness, body posture, condition). In addition, daily fecal scoring was carried out twice daily (9:00 am, and 3:00 pm) as follows: 0=solid, formed stools, 1=soft stools with no perineal soiling, 2=non-bloody diarrhea with perineal soiling, 3=bloody diarrhea with perineal soiling.
All morning observations were performed between 7:00 am and 12:00 pm to avoid diurnal variations. One additional fecal scoring was carried out at 3:00 pm.

bacteria and protozoa = settings: literature; cited from earlier work
[3] = tested on: jejunal tissue from rabbits infected with attaching-effacing E. coli (RDEC-1); test: Jejunal 3-O-methyl glucose transport in Ussing chambers; parameters: species or system rabbit
Description: Rabbits infected with attaching-effacing E. coli (RDEC-1) were used (20). Briefly, experimental rabbits (400-600 g) were orally inoculated with 5×10^7 live E. coli in 1 mL 10% sodium bicarbonate. Controls received sodium bicarbonate only. Animals were housed individually in a level B containment room, fed commercial feed and given water ad libitum. Ten days post-infection, all animals were killed with an intra-peritoneal overdose of sodium pentabarbitone following anesthesia with halothane. A 20-cm segment of jejunum beginning 5 cm distal to the ligament of Treitz was then removed and rinsed with ice-cold Kreb's buffer. Both longitudinal and circular muscle layers were stripped from the underlying mucosa and four adjacent pieces of jejunal tissue mounted under short-circuited conditions in Ussing chambers. Both mucosal and serosal surfaces were bathed in 10 ml of oxygenated Kreb's buffer with 10 mM glucose added to the serosal surface to provide metabolic energy to the tissue, 10 mM mannitol added to the mucosal surface to osmotically balance the glucose solution, and 20 mM 3-O-methyl glucose added to both surfaces. Immediately after mounting, 10 μCi 3-O-methyl[^3H]glucose was added to either the serosal or mucosal surface and allowed to equilibrate for 20 min. 3-O-methyl glucose is a non-metabolized glucose analog. Unidirectional mucosal to serosal (Jms) and serosal to mucosal (Jsm) fluxes were then determined by measuring 3 consecutive 5 min flux intervals and an overall 15 min flux interval before and after the addition of 100 ng/ml human recombinant epidermal growth factor (rhEGF) (Austral Biologicals, San Ramon, Calif.) or vehicle to the mucosal reservoir. Net flux (Jnet) was calculated by subtracting the serosal to mucosal flux, Jsm, from the mucosal to serosal flux, Jms. Clinical symptoms were monitored including fecal shedding of the bacterium.

enteropathogenic E. coli = settings: literature; cited from earlier work
[4] = tested on: jejunal nutrient transport; settings: cited from earlier work
Cryptosporidium parvum = settings: in vitro, literature; cited from earlier work
[5] = infected tissue treated with EGF compared to controls
[6] = infected tissue, 10 days post-infection, 100 ng/ml rhEGF on mucosal surface

Substance: EGF: 53-amino acid human epidermal growth factor of SEQ ID NO: 1; recombinant human EGF used in the experiments
- intestinal function (giardiasis): enhanced
- trophozoite colonization (giardiasis): inhibited
- weight gain (K88 positive E. coli; EGF-treated compared to untreated, over the course of the study): did not differ
- acceleration of return to normal fecal consistency (K88 positive E. coli; compared to untreated animals (day 3 instead of day 4)): one day
- day by which fecal scores returned to normal (fecal score of 0 in all animals) (K88 positive E. coli; rhEGF 100 μg/kg oral gavage daily from Day -1, infected Day 0, untreated: Day 4): ≤ 3 days
- fecal oocyte passage (C. parvum): decreased
- epithelial bacterial translocation and invasion (Salmonella typhimurium): inhibit
- epithelial bacterial translocation and invasion [1]: inhibit
- fecal scores ([2]; Day 1, one day after initiation of treatment, rhEGF 100 μg/kg oral, compared with vehicle): significantly (P<0.05) reduced
- animals that had died ([2]; Day 1, 5 piglets given EGF, 2 untreated died): 1
- weight gain ([2]; EGF compared to untreated): did not differ
- anti-protozoal effect (bacteria and protozoa): no direct
- bactericidal effect (bacteria and protozoa): no direct
- mucosal to serosal 3-O-methyl glucose transport [3, 5]: did not differ
- net 3-O-methyl glucose transport [3, 5]: did not differ
- mucosal to serosal flux of 3-O-methyl glucose [3, 6]: significantly increased
- net flux of 3-O-methyl glucose [3, 6]: significantly increased
- bacterial colonization (enteropathogenic E. coli): significantly inhibited
- diarrhea and reduced weight gain associated with the disease (enteropathogenic E. coli): prevented
- epithelial damage (enteropathogenic E. coli): reduced
- SGLT1 content in the microsomal fraction [4]: decrease
- enterocyte glucose transport [4]: increase
- defect in glucose transport ([4]; following administration of octreotide, literature): reverse
- BBMV SGLT1 content ([4]; literature): significant increase
- amino acid transport ([4]; literature): rapidly increases
- brush border (apical) surface area ([4]; literature): increase
- glucose transport ([4]; literature): rapidly increases
- ileal electroneutral NaCl absorption and brush-border Na+/H+ exchange ([4]; literature): increase
- jejunal glutamine, alanine galactose and glycine transport ([4]; literature): increase
- Vmax for glucose uptake into brush border membrane vesicles (BBMV) ([4]; mucosal EGF, literature): increased
- Vmax for proline uptake into brush border membrane vesicles (BBMV) ([4]; mucosal EGF, literature): increased
- epithelial colonization (Cryptosporidium parvum): reduce

Substance: TGFα: related peptide that binds to the EGF receptor [reference compound]
- brush border (apical) surface area ([4]; literature): had no effect
- glucose transport ([4]; literature): had no effect
- small intestinal absorption ([4]; some studies, literature): increase
